Literature values, collected in patent US20230048954A1, “COMPOSITIONS FOR REMOVING NECROTIC OR INFECTED TISSUES FROM BODY SURFACE LESIONS” (priority 2020, published 2023).

Details: at a temperature of 25° C.

Structure (SMILES) | pKa
CCCS(=O)(=O)O [1-Propanesulfonic acid] | −0.86
O=[N+]([O-])O [Nitric] | −1.4
